Data published in PubChem BioAssay (NCI).
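All cell lines were grown in 96-well plates and treated with compound for 48 hours. GI50 = concentration required for 50% inhibition of growth. TGI: concentration producing complete growth inhibition.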

How the values were obtained:
Test in all cases: NCI-60 cell line screen, 48 h
UACC-257 melanoma = test system: UACC-257 melanoma
RPMI-8226 leukemia = test system: RPMI-8226 leukemia
M14 melanoma = test system: M14 melanoma
OVCAR-5 ovarian = test system: OVCAR-5 ovarian
NCI-H522 lung = test system: NCI-H522 lung
EKVX NSCLC = test system: EKVX NSCLC
MCF7 breast = test system: MCF7 breast
PC-3 prostate = test system: PC-3 prostate
DU-145 prostate = test system: DU-145 prostate
T-47D breast = test system: T-47D breast

Compound | TGI (UACC-257 melanoma) | TGI (RPMI-8226 leukemia) | TGI (M14 melanoma) | TGI (OVCAR-5 ovarian) | TGI (NCI-H522 lung) | TGI (EKVX NSCLC) | other results
C#Cc1c(C)c(/C=C/C(C)=C/C(=O)OC)n(C)c1C | > 100 µM | > 100 µM | > 100 µM | > 100 µM | > 100 µM | > 100 µM | –
O=S(=O)(NCn1ccc2ccccc21)c1ccccc1 | > 100 µM | 47.2 µM | > 100 µM | > 100 µM | > 100 µM | > 100 µM | –
CC1CCSC(N(C(=O)N(C)c2ccccc2)c2ccccc2)=N1 (stereo not given) | > 100 µM | > 100 µM | > 100 µM | > 100 µM | > 100 µM | > 100 µM | –
NNC(=O)C(=O)N/N=C1\CCC(=O)CC1C(=O)CCC(=O)Nc1ccc(Cl)cc1 (stereo not given) | > 100 µM | > 100 µM | > 100 µM | > 100 µM | – | > 100 µM | –
c1ccc2c(-c3nc(-c4c[nH]c5ccncc45)cs3)c[nH]c2c1 | 3.43 µM | 3.04 µM | 3.46 µM | 6.63 µM | 3.92 µM | 4.61 µM | GI50 (UACC-257 melanoma): 1.8 µM; GI50 (RPMI-8226 leukemia): 1.25 µM; GI50 (M14 melanoma): 1.7 µM; GI50 (OVCAR-5 ovarian): 2.59 µM; GI50 (MCF7 breast): 1.43 µM; TGI (MCF7 breast): 3.16 µM; GI50 (NCI-H522 lung): 1.92 µM; GI50 (PC-3 prostate): 1.84 µM; TGI (PC-3 prostate): 6.25 µM; GI50 (DU-145 prostate): 3.36 µM; TGI (DU-145 prostate): 11.3 µM; GI50 (EKVX NSCLC): 1.78 µM
Cc1ccc(N=Nc2c(O)ccc3ccccc23)cc1 | > 100 µM | > 100 µM | > 100 µM | > 100 µM | > 100 µM | > 100 µM | TGI (T-47D breast): > 100 µM; TGI (PC-3 prostate): > 100 µM; TGI (DU-145 prostate): > 100 µM
C=CCC1=C(C)C[C@@H]2CCC(=O)C=C12 | > 100 µM | > 100 µM | > 100 µM | > 100 µM | > 100 µM | > 100 µM | –
CCOC(=O)N1CCc2cc(OC)c(OC)cc2/C1=C\c1ccc(OC)c(OC)c1 | 53.8 µM | > 100 µM | > 10 µM | > 100 µM | 77.6 µM | 89.2 µM | –
NCCOCCOCCNc1nc(-c2ccc(Cl)cc2)nc(N2CCN(c3ccccn3)CC2)n1 | 3.55 µM | – | – | 5.11 µM | – | – | GI50 (UACC-257 melanoma): 1.87 µM; GI50 (OVCAR-5 ovarian): 2.32 µM; GI50 (T-47D breast): 3.09 µM; TGI (T-47D breast): 9.94 µM; GI50 (PC-3 prostate): 1.89 µM; TGI (PC-3 prostate): 3.92 µM; GI50 (DU-145 prostate): 2.17 µM; TGI (DU-145 prostate): 4.51 µM
Cc1c(NC(=S)NC(=O)c2ccc([N+](=O)[O-])cc2)c(=O)n(-c2ccccc2)n1C | > 100 µM | > 100 µM | > 100 µM | > 100 µM | > 100 µM | > 100 µM | –
CCCC(=O)N[C@H]1C2C3CC4C5CC(C42)C1(C)C53 (stereo not given in full) | > 100 µM | > 100 µM | > 100 µM | > 100 µM | > 100 µM | > 100 µM | –
CC(C)CCCC(C)[C@H]1CCC2[C@@H]3CCC4Nc5c(cnn5-c5ccccc5)C[C@]4(C)C3CC[C@@]21C (stereo not given in full) | > 100 µM | > 100 µM | > 100 µM | > 100 µM | > 100 µM | 79.8 µM | –
O=C(O)CCNCCCCNCCC(=O)O | – | > 100 µM | > 100 µM | > 100 µM | > 100 µM | > 100 µM | –
Cc1c2c(c(C)c3c4c(oc13)CCCC4)C=NCC2 | 29.5 µM | 43 µM | 44.5 µM | 32.1 µM | 31.3 µM | 32 µM | TGI (T-47D breast): > 100 µM; TGI (MCF7 breast): 30.4 µM; TGI (DU-145 prostate): 28.5 µM
c1ccc2c(c1)oc1ccc3nsnc3c12 | > 100 µM | – | > 100 µM | > 100 µM | > 100 µM | > 100 µM | –
CCOC(=O)CCn1ncc(Cl)c(Cl)c1=O | 26.5 µM | 15.3 µM | 14.5 µM | 32.1 µM | 0.834 µM | 36 µM | –
C=CCO/N=C(\OC(=O)c1ccc([N+](=O)[O-])cc1)c1ccccc1 | – | > 100 µM | > 100 µM | > 100 µM | – | > 100 µM | –
N/N=C1\C(=O)N(c2ccc(Cl)cc2Cl)C(=O)C(=O)C1c1nc2ccccc2o1 (stereo not given) | > 100 µM | > 100 µM | > 100 µM | > 100 µM | > 100 µM | > 100 µM | –
Cc1cccc(C)c1NC(=O)CCc1nc(=S)[nH][nH]1 | – | > 100 µM | > 100 µM | > 100 µM | > 100 µM | > 100 µM | –
C[C@]12CC[C@H](O)CC1=CC[C@@H]1C2CC[C@]2(C)Nc3c(cnn3-c3ccccc3)CC12 (stereo not given in full) | 15 µM | 1.49 µM | 30.9 µM | 17.3 µM | – | 57.7 µM | –
